In USRE46511E1, “Fused pyrimidine derivatives for inhibition of tyrosine kinase activity” (HANMI SCIENCE CO., LTD., priority 2010, dated 2017) one finds GI50 and IC50 data, which are given here for one compound.

SMILES strings stand for the structures. A value given as a limit tells only on which side of the number the result lay.

Assay [1] relates to HCC827 (EGFR DelE746_A750). Description: Inhibition test for growth of cancer cell expressing EGFR (SRB), HCC827.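 Note: cells in 96-well plates exposed to tenfold serial dilutions from 100 µM, fixed with trichloroacetic acid, SRB-stained, absorbance read at 540 nm, DMSO under 1%.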 The format is cell-based. The settings on record: Homo sapiens, HCC827, 72 h, HCC827 cells, 72 hours, SRB; read-out: GI50 HCC827 EGFR DelE746_A750.
A further assay addresses T1, BMX (Homo sapiens, UniProt P51813).
T1 construct: purchased Invitrogen
T1 sequence (P51813 1-675): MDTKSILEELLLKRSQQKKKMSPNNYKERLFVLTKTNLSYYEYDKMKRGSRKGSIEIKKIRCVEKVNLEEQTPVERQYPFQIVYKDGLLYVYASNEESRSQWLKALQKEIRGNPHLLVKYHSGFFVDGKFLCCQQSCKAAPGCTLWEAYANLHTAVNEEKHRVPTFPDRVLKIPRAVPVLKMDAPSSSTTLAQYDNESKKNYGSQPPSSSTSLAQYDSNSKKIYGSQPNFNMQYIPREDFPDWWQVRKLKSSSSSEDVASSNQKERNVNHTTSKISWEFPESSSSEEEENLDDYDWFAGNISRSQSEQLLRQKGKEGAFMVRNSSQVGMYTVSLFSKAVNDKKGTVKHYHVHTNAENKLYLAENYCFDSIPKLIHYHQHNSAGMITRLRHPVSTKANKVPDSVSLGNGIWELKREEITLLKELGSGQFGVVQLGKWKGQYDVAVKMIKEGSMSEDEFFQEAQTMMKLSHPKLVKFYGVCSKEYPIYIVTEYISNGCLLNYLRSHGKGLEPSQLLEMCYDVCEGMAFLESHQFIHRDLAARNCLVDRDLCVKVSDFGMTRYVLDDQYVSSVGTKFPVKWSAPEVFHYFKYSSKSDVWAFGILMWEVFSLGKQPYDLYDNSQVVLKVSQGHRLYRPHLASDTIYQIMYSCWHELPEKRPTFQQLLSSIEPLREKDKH
Description: z-lyte kinase assay, BMX. The assay is classed as biochemical.

The test system of another assay is A431 (EGFR WT). The assay can be described thus: Inhibition test for growth of cancer cell expressing EGFR (SRB), A431.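 Note: cells in 96-well plates exposed to tenfold serial dilutions from 100 µM down to 10^−6 µM, DMSO under 1%, SRB staining read as absorbance at 540 nm.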 The format is cell-based. As to conditions: Homo sapiens, A-431; A431 cells, 72 hours, SRB; read-out: GI50 A431 EGFR WT.
For the next assay, the target named is T2, BTK (Homo sapiens, UniProt Q06187).
T2 construct: purchased Invitrogen
T2 sequence (Q06187 whole entry): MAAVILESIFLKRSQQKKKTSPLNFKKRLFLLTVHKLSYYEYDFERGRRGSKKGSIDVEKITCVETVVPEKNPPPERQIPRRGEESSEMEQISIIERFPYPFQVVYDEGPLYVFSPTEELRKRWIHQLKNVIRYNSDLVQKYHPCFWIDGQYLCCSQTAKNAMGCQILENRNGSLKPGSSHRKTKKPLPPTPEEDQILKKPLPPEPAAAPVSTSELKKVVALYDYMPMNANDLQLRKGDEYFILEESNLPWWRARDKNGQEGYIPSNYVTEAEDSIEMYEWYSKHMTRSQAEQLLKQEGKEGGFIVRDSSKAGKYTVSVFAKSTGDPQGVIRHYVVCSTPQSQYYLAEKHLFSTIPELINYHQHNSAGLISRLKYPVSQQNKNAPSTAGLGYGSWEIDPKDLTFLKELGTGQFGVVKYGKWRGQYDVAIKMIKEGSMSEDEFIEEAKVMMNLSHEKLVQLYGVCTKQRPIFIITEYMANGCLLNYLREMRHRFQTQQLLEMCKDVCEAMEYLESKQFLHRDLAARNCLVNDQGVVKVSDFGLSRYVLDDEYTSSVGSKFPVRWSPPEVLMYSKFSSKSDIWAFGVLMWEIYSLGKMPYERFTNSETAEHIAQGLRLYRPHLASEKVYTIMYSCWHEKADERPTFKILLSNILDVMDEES
Description: z-lyte kinase assay, BTK. The assay is classed as biochemical. In short, it runs like this:
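Each kinase was mixed with peptide substrate, compound (dilution series made at 1–0.0001 μM in 4% DMSO) and ATP added from a 5~300 μM solution, then incubated 60 min at RT. After development reagent and stop solution, fluorescence was read at 400 nm excitation/520 nm emission and IC50 calculated.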

A word on the GI50: it is the concentration that inhibits growth by half. The term IC50 denotes the midpoint of a concentration-inhibition curve.

Description for A431 (EGFR WT): A431 cell line was incubated in a high-glucose DMEM (Dulbecco's Modified Eagle's Medium) supplemented with 10% fetal bovine serum (FBS) and 1% penicillin/streptomycin (Gibco BRL), and HCC827 and NCI-H1975 cell lines were incubated in an RPMI medium supplemented with 10% FBS, 1% penicillin/streptomycin and 1% sodium pyruvate.
The cancer cell lines stored in a liquid nitrogen tank were each quickly thawed at 37° C., and centrifuged to remove the medium. The resulting cell pellet was mixed with a culture medium, incubated in a culture flask at 37° C. under 5% CO2 for 2 to 3 days, and the medium was removed. The remaining cells were washed with DPBS (Dulbecco's Phosphate Buffered Saline) and separated from the flask by using Tripsin-EDTA. […] 100 μl of the diluted cell solution was added to each well of a 96-well plate, and incubated at 37° C. under 5% CO2 for 1 day.
In case that the test compound was not soluble in DMSO, 1% HCl was added thereto and treated in a 40° C. water bath for 30 mins until a complete dissolution was attained. The DMSO solution containing test compound was diluted with a culture medium to a final concentration of 100 μM, and then diluted 10 times serially to 10^−6 μM (a final concentration of DMSO was less than 1%).
The medium was removed from each well of the 96-well plate. And then, 100 μl of a test compound solution was added to each well holding the cultured cells, and the plate was incubated at 37° C. under 5% CO2 for 72 hours (except that NCI-H1975 cells were incubated for 48 hours). After removing the medium from the plate, 50 μA of 10% trichloroacetic acid was added to each well, and the plate was kept at 4° C. for 1 hour to fix the cells to the bottom of the plate. The added 10% trichloroacetic acid solution was removed from each well, the plate was dried, 100 μA of an SRB (Sulforhodamine-B) dye solution at a concentration of 0.4% dissolved in 1% acetic acid was added thereto, and the resulting mixture was reacted for 10 mins at room temperature. After removing the dye solution, the plate was washed with water, and well dried. When the dye solution was not effectively removed by water, 1% acetic acid was used. 150 μA of 10 mM trisma base was added to each well, and the absorbance at 540 nm wavelength was determined with a microplate reader.

For `C=CC(=O)Nc1cccc(Oc2nc(Nc3ccc(N4CCN(C)CC4)cc3)nc3ccsc23)c1` [Example 1, N-(3-(2-(4-(4-methylpiperazin-1-yl)phenylamino)thieno[3,2-d]pyrimidine-4-yloxy)phenyl)acrylamide], the figures for the 50% growth inhibitory concentration (GI50) (in assay [1]; with A431 (EGFR WT)) were less than 50 nM and more than 1000 nM, respectively. For the same compound, the IC50 against BMX and against BTK was not above 50 nM throughout.
